Type in all cases: cell-based
The target of one assay is T1, hASIC3 (Homo sapiens, UniProt Q9UHC3).
T1 sequence (Q9UHC3 1-531): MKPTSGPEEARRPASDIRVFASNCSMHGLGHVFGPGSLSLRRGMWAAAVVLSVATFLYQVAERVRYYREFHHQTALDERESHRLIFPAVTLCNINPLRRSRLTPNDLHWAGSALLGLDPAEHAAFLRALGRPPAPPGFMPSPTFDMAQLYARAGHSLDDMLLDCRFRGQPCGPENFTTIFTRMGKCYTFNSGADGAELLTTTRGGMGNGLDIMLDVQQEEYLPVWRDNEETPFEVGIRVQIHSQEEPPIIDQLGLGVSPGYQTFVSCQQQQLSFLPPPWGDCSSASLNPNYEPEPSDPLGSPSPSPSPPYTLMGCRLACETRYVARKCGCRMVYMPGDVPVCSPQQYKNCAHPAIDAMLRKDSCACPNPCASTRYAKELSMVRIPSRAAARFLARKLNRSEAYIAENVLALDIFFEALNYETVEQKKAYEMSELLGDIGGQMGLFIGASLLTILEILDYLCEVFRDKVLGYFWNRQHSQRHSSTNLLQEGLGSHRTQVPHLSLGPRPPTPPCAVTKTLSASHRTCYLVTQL
The assay is described as follows: FlexStation assay on HEK293 cells expressing hASIC3. Set-up: expressed in transfected cells; host or cells: HEK293 cells. The following applies: for IC50: FlexStation (Flex), Tables A-F, read-out: Biological Data (IC50 uM) h3 (Flex); for EC50: Table H, cells marked (h3), HEK293, read-out: EC50 (μM) Flex/FLIPR (h3). As to the method: A vial of FMP dye (Molecular Devices) is resuspended in 10.5 ml of assay buffer (48.3 mM NaCl, 93 mM NMDG, 5 mM KCl, 5 mM CaCl2, 1 mM MgCl2, 10 mM HEPES, pH 7.4). The culture medium is aspirated from the wells, and 100 μl of the FMP loading solution is added to each well. The cells are incubated at 37° C. for 30 min.
After the loading period, the loading solution is left on the cells and the membrane potential-induced fluorescence is measured in FLIPR™ or FlexStation™ (Molecular Devices, USA), or any other suitable equipment known to the skilled in the art.
For cells co-expressing ASIC1a and ASIC3 channels (e.g. HEK293 cells), membrane potential dye (FMP dye) is used and the FlexStation settings are as above.
The MES-induced peak calcium response (or change in membrane potential), in the presence of test substance, is expressed relative to the MES response alone. Test substances that block the MES-induced calcium response (or change in membrane potential) are re-tested in triplicates. Confirmed hits are picked for further characterization by performing full dose-response curves to determine potency of each hit compound as represented by the IC50 values (i.e., the concentration of the test substance which inhibits 50% of the MES-induced calcium and/or membrane potentiation response; see, for example, FIG. 1).
The data shown in Table H was acquired using the FlexStation assay described in Example 1 on HEK293 cells expressing hASIC3 (h3) and/or hASIC1a (h1a).

The target of assay [1] is T2, hASIC1a (Homo sapiens, UniProt P78348).
T2 sequence (P78348 1-528): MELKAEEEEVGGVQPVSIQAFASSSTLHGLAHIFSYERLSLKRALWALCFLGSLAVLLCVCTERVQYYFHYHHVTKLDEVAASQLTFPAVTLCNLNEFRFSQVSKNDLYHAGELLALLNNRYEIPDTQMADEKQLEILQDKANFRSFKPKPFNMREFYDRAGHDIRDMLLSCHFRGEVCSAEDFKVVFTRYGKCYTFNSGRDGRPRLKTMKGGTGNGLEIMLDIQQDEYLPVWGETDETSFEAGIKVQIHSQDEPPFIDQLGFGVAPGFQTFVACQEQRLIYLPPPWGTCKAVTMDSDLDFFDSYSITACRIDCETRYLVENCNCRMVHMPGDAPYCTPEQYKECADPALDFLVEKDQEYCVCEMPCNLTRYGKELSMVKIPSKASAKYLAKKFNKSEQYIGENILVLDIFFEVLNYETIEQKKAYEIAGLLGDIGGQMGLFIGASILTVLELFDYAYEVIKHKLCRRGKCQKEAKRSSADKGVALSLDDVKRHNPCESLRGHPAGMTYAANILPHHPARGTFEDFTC
The assay is described as follows: Two-electrode voltage clamp in Xenopus laevis oocytes expressing hASIC1a (OpusExpress). Set-up: expressed in transfected cells; host or cells: Xenopus laevis oocytes, nuclear microinjection of cDNA (e.g. in pCDNA3). As to the method:
Two-electrode voltage clamp electrophysiological assays in Xenopus laevis oocytes expressing gated ion channels are performed as follows:
Oocytes are surgically removed from adult Xenopus laevis and treated for 2 h at room temperature with 1 mg/ml type I collagenase (Sigma) in Barth's solution under mild agitation. Selected oocytes at stage IV-V are defolliculated manually before nuclear microinjection of 2.5-5 ng of a suitable expression vector, such as pCDNA3, comprising the nucleotide sequence encoding a gated ion channel subunit protein. In such an experiment, the oocytes express homomultimeric proton-gated ion channels on their surface. In an alternate experiment, one, two, three or more vectors comprising the coding sequences for distinct gated ion channel subunits are co-injected in the oocyte nuclei. In the latter case, oocytes express heteromultimeric proton-gated ion channels. […] Once impaled with the microelectrodes, oocytes are continuously superfused at 10-12 ml/min with a modified Ringer's solution containing 97 mM NaCl, 2 mM KCl, 1.8 mM CaCl2, and 10 mM HEPES brought to pH 7.4 with NaOH (Control Ringer). Test Ringer solution is prepared by replacing HEPES with MES and adjusting the pH to the desired acidic value. Compounds of the present invention are prepared in both the Control and Test Ringer solutions and applied to oocytes at room temperature through a computer-controlled switching valve system. […] Similarly, recordings can also be acquired in an automated multichannel oocytes system as the OpusExpress™ (Molecular Devices, Sunnyvale, Calif., USA).
Recordings were acquired from oocytes expressing homomeric hASIC1a using a two-electrode voltage-clamp configuration procedure as described herein.
In general terms: Two-electrode voltage clamp holds a large cell at a set potential and records current.

The target in assay [2] is T2, hASIC1a. The assay is described as follows: Whole-cell patch clamp of acid-induced currents in cells transfected with hASIC1a. Set-up: expressed in transfected cells. The following applies: patch clamp (PC), Tables A-F, h1a printed in some cells only. As to the method: Another example of an in vitro assessment method consists of using mammalian heterologous expression systems, which are known to those skilled in the art, and include a variety of mammalian cell lines such as COS, HEK, e.g., HEK293 and/or CHO, cells. Cell lines are transfected with gated ion channel(s) and used to perform electrophysiology as follows:
All experiments are performed at room temperature (20-25° C.) in voltage clamp using conventional whole cell patch clamp methods (Neher, E., et al. (1978) Pfluegers Arch 375:219-228).
The amplifier used is the EPC-9 (HEKA-electronics, Lambrect, Germany) run by a Macintosh G3 computer via an ITC-16 interface. Experimental conditions are set with the Pulse-software accompanying the amplifier. Data is low pass filtered and sampled directly to hard-disk at a rate of 3 times the cut-off frequency.
Pipettes are pulled from borosilicate glass using a horizontal electrode puller (Zeitz-lnstrumente, Augsburg, Germany). The pipette resistances are 2-3 MOhms in the salt solutions used in these experiments. The pipette electrode is a chloridized silver wire, and the reference is a silver chloride pellet electrode (In Vivo Metric, Healdsburg, USA) fixed to the experimental chamber. The electrodes are zeroed with the open pipette in the bath just prior to sealing.
Coverslips with the cells are transferred to a 15 μl experimental chamber mounted on the stage of an inverted microscope (IMT-2, Olympus) supplied with Nomarski optics. Cells are continuously superfused with extracellular saline at a rate of 2.5 ml/min. After giga-seal formation, the whole cell configuration is attained by suction. The cells are held at a holding voltage of −60 mV and at the start of each experiment the current is continuously measured for 45 s to ensure a stable baseline. Solutions of low pH (<7) are delivered to the chamber through a custom-made gravity-driven flowpipe, the tip of which is placed approximately 50 μm from the cell. Application is triggered when the tubing connected to the flowpipe is compressed by a valve controlled by the Pulse-software. Initially, low pH (in general, pH 6.5) is applied for 5 s every 60 s. The sample interval during application is 550 μs. After stable responses are obtained, the extracellular saline as well as the low-pH solution are switched to solutions containing the compound to be tested. The compound is present until responses of repeatable amplitude are achieved. Current amplitudes are measured at the peak of the responses, and effect of the compounds is calculated as the amplitude at compound equilibrium divided by the amplitude of the current evoked by the pulse just before the compound was included.
The following salt solutions are used: extracellular solution (mM): NaCl (140), KCl (4), CaCl2 (2), MgCl2 (4), HEPES (10, pH 7.4); intracellular solution (mM): KCl (120), KOH (31), MgCl2 (1.785), EGTA (10), HEPES (10, pH 7.2). In general, compounds for testing are dissolved in 50% DMSO at 500 fold the highest concentration used.
CHO cells were transfected with hASIC1a and used to perform full dose-inhibition curves with Compound B, and Compound R. Results are expressed as a fraction of the control peak current obtained in the absence of the test substance.
For orientation: The patch-clamp technique gives a direct electrical read-out from membranes.

[3] abbreviates: OpusExpress (OX), Tables A-F, h1a printed in some cells only.

The structures appear in SMILES notation.

For the molecule `CN1CCN(c2nc(-c3ccccc3F)nc3ccccc23)CC1` [Compound L, 2-(2-fluoro-phenyl)-4-(4-methyl-piperazin-1-yl)-quinazoline], on hASIC3, the 50% inhibitory concentration (IC50) (usually the concentration at which inhibition is half-maximal) was 5 to 15 µM and the EC50 is over 10 µM.
For `Cc1cc(N2CCN(Cc3ccc4c(c3)OCO4)CC2)c2ccccc2n1` [Compound P], on hASIC1a [1] (Table H, read-out: IC50 (μM) Opus Express (h1a)), the IC50 was over 50 µM. Moreover, at hASIC3, the IC50 is 10 to 20 µM and the EC50 was over 10 µM.
`COc1ccc(-c2cc(C(=O)N3CCN(Cc4ccc5c(c4)OCO5)CC3)c3cc(Cl)ccc3n2)cc1` [Compound 44, (4-benzo[1,3]dioxol-5-ylmethyl-piperazin-1-yl)-[6-chloro-2-(4-methoxy-phenyl)-quinolin-4-yl]-methanone]: on hASIC1a [2], the “Biological Data (IC50 uM) h1a (PC)” value is “Not Active (OX, PC)”. In addition, the “Biological Data (IC50 uM) h1a (OX)” value at hASIC1a [1] (setting [3]) was “Not Active (OX, PC)”.
Regarding `Cc1ccc(-c2nc(Nc3cccc(C(=O)O)c3)c3ccccc3n2)cc1` [Compound T, 3-(2-p-tolyl-quinazolin-4-ylamino)-benzoic acid], the EC50 on hASIC3 is over 20 µM.
`Cc1ccc(-c2nc(Nc3ccc(C(=O)O)cc3)c3cc(Cl)ccc3n2)cc1` [Compound 107, 4-(6-chloro-2-p-tolyl-quinazolin-4-ylamino)-benzoic acid]: the IC50 on hASIC1a [2] (read-out: Biological Data (IC50 uM) h1a (PC)) was over 30 µM; on hASIC3, 20 to 30 µM.
As for `O=C(O)c1cc(-c2ccc(Cl)cc2)nc2ccc(Cl)cc12` [Compound 36, 6-chloro-2-(4-chloro-phenyl)-quinoline-4-carboxylic acid], the IC50 on hASIC1a [1] (OpusExpress (OX), Tables A-F, h1a printed in some cells only, read-out: Biological Data (IC50 uM) h1a (OX)) is over 50 µM; at hASIC3 it was 15 to 25 µM.
For the molecule `Cc1cc(N2CCNCC2)c2ccccc2n1` [Compound M, 2-methyl-4-piperazin-1-yl-quinoline], the “Biological Data (IC50 uM) h1a (OX)” value on hASIC1a [1] (setting [3]) is “inactive”. In addition, the “IC50 (μM) Opus Express (h1a)” value on hASIC1a [1] (Table H) is “Inactive”. On hASIC3, the IC50 lay in the range of 5 to 15 µM and the EC50 was over 10 µM.
`COc1ccc(-c2cc(C(=O)O)c3cc(Cl)ccc3n2)c(O)c1` [Compound 37, 6-chloro-2-(2-hydroxy-4-methoxy-phenyl)-acid]: at hASIC3, the IC50 was in the range of 10 to 20 µM.
Consider `FC(F)(F)c1ccc2c(OC3CCN(Cc4ccccc4)CC3)ccnc2c1` [Compound S, 4-(1-benzyl-piperidin-4-yloxy)-7-trifluoromethyl-quinoline], for which, on hASIC3, the IC50 was 25 to 35 µM and the EC50 is over 20 µM.
Turning to `COc1ccc(N2CCN(C(=O)c3cc(-c4ccc(OC)c(OC)c4)nc4ccccc34)CC2)cc1` [Compound 41, [2-(3,4-dimethoxy-phenyl)-quinolin-4-yl]-[4-(4-methoxy-phenyl)-piperazin-1-yl]-methanone], the “Biological Data (IC50 uM) h1a (PC)” value at hASIC1a [2] is “Not Active (OX, PC)”. Besides, the “Biological Data (IC50 uM) h1a (OX)” value on hASIC1a [1] (setting [3]) is listed as “Not Active (OX, PC)”.
`Cc1cc(N2CCN(c3ccc([N+](=O)[O-])cc3)CC2)c2ccccc2n1` [Compound 61, 2-methyl-4-[4-(4-nitro-phenyl)-piperazin-1-yl]-quinoline]: the “Biological Data (IC50 uM) h1a (OX)” value on hASIC1a [1] (setting [3]) is “Not Active (OX)”.
For `Cc1cc(N2CCN(C(=O)OCc3ccccc3)CC2)c2ccccc2n1` [Compound N, 4-(2-methyl-quinolin-4-yl)-piperazine-1-carboxylic acid benzyl ester], the “IC50 (μM) Opus Express (h1a)” value against hASIC1a [1] (Table H) is “Inactive”. Further, the EC50 at hASIC3 was over 20 µM.
Consider `Cc1ccc(-c2nc(N(C)c3ccc(C(=O)O)cc3)c3ccccc3n2)cc1` [Compound 106, 4-[methyl-(2-p-tolyl-quinazolin-4-yl)-amino]-benzoic acid], for which, on hASIC1a [1] (setting [3]), the “Biological Data (IC50 uM) h1a (OX)” value is listed as “Not Active (OX)”.

(Values after US20070197509A1, “Compositions and methods for modulating gated ion channels” (PainCeptor Pharma Corporation, priority 2005, published 2007).)
